Laboratory results taken from the supplement of paper PMC10307832.

Columns and labels:
Experiment in all cases: relative viability (nuclei count vs DMSO), 5 days (fraction); higher = more cells survive
Metformin + OSI-027 = compound: CN(C)C(=N)NC(=N)N [Metformin] + COc1cccc2cc(-c3nc([C@H]4CC[C@H](C(=O)O)CC4)n4ncnc(N)c34)[nH]c12 [OSI-027] (partner 0.5 µM)
Outline: (§1)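 Each reported value is a median over duplicate plates. It expresses relative viability: treated-well nuclei count divided by vehicle-well nuclei count. Lung cancer cell lines in 1536-well plates were dosed by pin tool a day after seeding, alone with one drug or with a fixed anchor-drug dose plus five library-drug doses (not always all listed) in √10 steps, and nuclei were counted after 5 days.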

Apatinib + Lapatinib = compound: N#CC1(c2ccc(NC(=O)c3cccnc3NCc3ccncc3)cc2)CCCC1 [Apatinib] + CS(=O)(=O)CCNCc1ccc(-c2ccc3ncnc(Nc4ccc(OCc5cccc(F)c5)c(Cl)c4)c3c2)o1 [Lapatinib] (partner 2 µM)
Outline: as §1

Apatinib + AZD7762 = compound: N#CC1(c2ccc(NC(=O)c3cccnc3NCc3ccncc3)cc2)CCCC1 [Apatinib] + NC(=O)Nc1cc(-c2cccc(F)c2)sc1C(=O)N[C@H]1CCCNC1 [AZD7762] (partner 0.2 µM)
Outline: as §1

Apatinib + Luminespib = compound: N#CC1(c2ccc(NC(=O)c3cccnc3NCc3ccncc3)cc2)CCCC1 [Apatinib] + CCNC(=O)c1noc(-c2cc(C(C)C)c(O)cc2O)c1-c1ccc(CN2CCOCC2)cc1 [Luminespib] (partner 0.01 µM)
Outline: as §1

Cell Line	relative viability (Metformin + OSI-027; first compound 10 µM)	relative viability (Metformin + OSI-027; first compound 31.62 µM)	relative viability (Metformin + OSI-027; first compound 100 µM)	relative viability (Metformin + OSI-027; first compound 316.23 µM)	relative viability (Metformin + OSI-027; first compound 1000 µM)	relative viability (Apatinib + Lapatinib; first compound 0.08 µM)	relative viability (Apatinib + Lapatinib; first compound 0.253 µM)	relative viability (Apatinib + Lapatinib; first compound 0.8 µM)	relative viability (Apatinib + Lapatinib; first compound 2.53 µM)	relative viability (Apatinib + Lapatinib; first compound 8 µM)	relative viability (Apatinib + AZD7762; first compound 0.08 µM)	relative viability (Apatinib + AZD7762; first compound 0.253 µM)	relative viability (Apatinib + AZD7762; first compound 0.8 µM)	relative viability (Apatinib + AZD7762; first compound 2.53 µM)	relative viability (Apatinib + AZD7762; first compound 8 µM)	relative viability (Apatinib + Luminespib; first compound 0.08 µM)	relative viability (Apatinib + Luminespib; first compound 0.253 µM)	relative viability (Apatinib + Luminespib; first compound 0.8 µM)	relative viability (Apatinib + Luminespib; first compound 2.53 µM)	relative viability (Apatinib + Luminespib; first compound 8 µM)
HCC-366	0.757	0.967	0.991	0.808	1.28	1.07	1.14	0.98	0.979	1.02	0.283	0.457	0.135	0.128	0.0774					
HCC-827		0.714	0.704	0.586	0.73	0.197	0.177	0.165	0.19	0.196	0.166	0.213	0.165	0.141	0.158	0.765	0.704	0.391	0.777	0.566
HOP-62	0.827	0.903	0.992	0.678	0.861	0.994		0.945	0.955	0.929	0.676	0.536	0.453	0.361	0.348	1.01	0.838	0.77	0.714	0.692
IA-LM						0.814	0.677	0.772	0.6	0.305										
LCLC-103H	0.51	0.624	0.555	0.461	0.506						0.801	0.741	0.858	0.7	0.75	0.969	0.949	0.864	0.957	0.735
NCI-H441		0.665	0.519	0.393	0.46						1	1.16	1.05	1.08	1.06	0.261	0.296	0.253	0.406	0.308
NCI-H520	0.306	0.35	0.322	0.28	0.348	0.981	1.12	0.856	0.767	0.659						0.218	0.245	0.223	0.216	0.207
NCI-H522	0.796	0.752	0.708	0.744	0.667						0.884	1	0.867	0.623	0.794	1.14	1.08	1.27	1.07	0.955
NCI-H661	0.6	0.617	0.487	0.613	0.642	0.598	0.59	0.504	0.477	0.391						0.973	0.873	0.898	0.95	0.865
NCI-H1299						0.99	1.01	0.981	0.938	0.773										
NCI-H1563	0.742	0.797	0.778	0.722	0.866	0.682	1.03	0.943	0.891	0.834						0.534	0.536	0.533	0.548	0.543
NCI-H1648	0.24	0.264	0.264	0.285	0.279						0.937	0.667	0.612	0.567	0.601					
NCI-H1650	0.887	0.889	0.837	0.771	0.38	0.626	0.796	0.908	0.756	0.689							0.185	0.217	0.179	0.168
NCI-H1703						1.01	0.685	0.291	0.228	0.276	0.147	0.127	0.123	0.0918	0.127					
NCI-H2009	0.754	0.821	0.752	0.692	0.601	0.993	0.893	0.863	0.795	0.538						1.1	1.09	0.988	0.992	0.86
NCI-H2023	0.421	0.558	0.379	0.397	0.378	0.751	0.945	0.911	0.74	0.737						0.981	0.917	0.708	0.507	0.649
NCI-H2228	0.81	0.551	0.456	0.513	0.792	1.01	1.05	0.986	0.835	0.644						0.126	0.122	0.129	0.13	0.126
NCI-H2342	0.538	0.617	0.55	0.549	0.568						0.454	0.464	0.536	0.385	0.353	0.677	0.552	0.81	0.702	0.726
SK-LU-1	0.32	0.389	0.354	0.318	0.299	0.939	1.16	1.03	0.715	0.709						0.196	0.201	0.202	0.182	0.186
SK-MES-1	0.446	0.551	0.532	0.432	0.454	0.473	0.473	0.512	0.414	0.502						0.732	0.796	0.701	0.727	0.795
SW 900	0.597	0.781	0.617	0.544	0.538						0.656	0.587	0.563	0.374	0.401	0.171	0.178	0.175	0.185	0.177
SW 1573	0.68	0.756	0.611	0.4	0.419	0.958	1.09	1.15	1.09	1.02						0.318	0.184	0.183	0.162	0.195
UMC-11	0.594	0.549	0.539	0.426	0.505	1.15	0.917	0.83	0.972	0.901						1.13	1.02	0.926	1.04	0.886
